Entries after “also recorded” stand apart in the source; their conditions may differ.
What was measured:
TSPO = molecular target: T1, TSPO (Rattus norvegicus, UniProt P16257); test: [3H] PK 11195 radioligand displacement from TSPO, rat heart mitochondria; type: binding; conditions: individual regioisomers compared with the mixture
T1 construct: rat heart mitochondria was isolated and incubated with; tissue CEREP (France); host or cells: rat heart mitochondria
Description: Binding studies. Radioligand binding studies were conducted by CEREP (France) according to standard procedures as described by LeFur. Briefly, rat heart mitochondria was isolated and incubated with [^3H] PK11195 at 30° C. in the presence of increasing concentrations of EET-me analogues or EET free acids. Reaction mixture was passed through glass wool filters washed 3 times using cold binding buffer and dried by air. Filter were than counted and IC50 values were calculated.

LPS induced hyperalgesia = test: intraplantar LPS inflammatory pain, thermal hindpaw withdrawal latency; type: in vivo, rat; conditions: for analgesic activity of AEPU on co-administration: 10 mg/kg dermal, co-administered with AEPU; for inflammatory pain related behavior: LPS inflammation
Description: (§1) Treatments and behavioral nociceptive tests. Behavioral nociceptive testing was conducted by assessing thermal hindpaw withdrawal latencies (TWL) using a commercial Hargreaves (Hargreaves et. al 1998) apparatus (IITC, Woodland Hills, Calif.), or by determining mechanical hindpaw withdrawal thresholds (MWT) using an electronic von Frey anesthesiometer (IITC, Woodland. Hills, Calif.). For DAT determination, a maximum stimulus duration of 22 s was imposed to prevent tissue damage. Following baseline measurements, rats were first treated with 200 μl of vehicle or compound-formulated cream by topical application to one hindpaw, LPS ([…] in 50 μl 0.9% NaCl) was injected into the plantar surface of the treated paw. For subcutaneous administration, compounds were injected immediately after intraplantar LPS. Animals were then placed in acrylic chambers on a glass platform maintained at a temperature of 30±1° C. for measurement or on a wire-mesh platform for MWT measurements. A probe fitted with a filament that is connected to a force transducer was applied to the plantar hind paw surface through a wire-mesh platform until eliciting a withdrawal reflex. The duration of heat application or the force (gr) necessary to elicit a withdrawal was designated as TWL and MWT. The steroidogenesis inhibitors were applied 2 hours before sEHI and LPS administration. Diabetes was induced by intravenous injection of 50 mg/kg streptozocin (STZ) in saline following baseline measurements. Diabetic animals were tested at least one week after STZ administration. Three measurements were taken from each animal at each time point and average responses were converted to percent analgesia index based on each animals' baseline response.

[1] = tested on: streptozocin induced neuropathic pain; test: von Frey test (mechanical allodynia) in streptozocin neuropathic rats; type: in vivo, rat; conditions: for neuropathic pain, von Frey test: streptozocin (50 mg/kg iv) rats, subcutaneous, dose and time response
Description: Male Sprague-Dawley rats weighing 250-300 grains were used. Animals were individually housed at UC Davis Animal Resource Facility under standard conditions with free access to food and water, and maintained for at least 1 week before the experiments. Pain was quantified using three tests, the hind paw withdrawal latency test, the mechanical hyperalgesia test and the mechanical allodynia test. All the experiments were performed during the daytime.
Rats were first trained to the experimental chamber in two separate sessions. On the day of the induction of neuropathy, the animals' basal response to all three tests were measured and then streptozocin (50 mg/kg) was administered intravenously. Animals were then followed over time for the development of neuropathic pain. An inhibitor of sEH was administered subcutaneously one week after the onset of pain symptoms. […] Compounds were formulated by dissolving them in ethanol and mixing with trans free oleic oil. At least six animals per group were used. The Von Frey test was conducted by stimulating the plantar surface of the rats' hind paw with a calibrated filament connected to a force transducer. As this filament is applied the amount of force exerted on the paw increases and the animal withdraws its paw when the force reaches its threshold. […] In the Randal-Selitto test a similar principle is used. The animals' hind paw is placed between a flat surface and a pointed tip of a force transducer. The pointed tip exerts force on the dorsal face of the paw. […] The two tests are complementary, but depend on the activity of different groups of nociceptors.
as §1, with “Behavioral nociceptive testing was conducted by assessing thermal hindpaw withdrawal latencies (TWL) using a commercial Hargreaves (Hargreaves et. al 1998) apparatus (IITC, Woodland Hills, Calif.), or by determining mechanical hindpaw withdrawal thresholds (MWT) using an electronic von Frey anesthesiometer (IITC, Woodland. Hills, Calif.). For DAT determination, a maximum stimulus duration of 22 s was imposed to prevent tissue damage.” left out, “Animals were then placed in acrylic chambers on a glass platform maintained at a temperature of 30±1° C. for measurement or on a wire-mesh platform for MWT measurements.” left out

COX-2 mRNA = test: spinal COX-2 mRNA after intraplantar LPS; type: in vivo, rat; conditions: spinal cord
[2] = tested on: streptozocin induced neuropathic pain; test: mechanical hyperalgesia test (Randal-Selitto) in streptozocin neuropathic rats; type: in vivo, rat
Description: Male Sprague-Dawley rats weighing 250-300 grains were used. Animals were individually housed at UC Davis Animal Resource Facility under standard conditions with free access to food and water, and maintained for at least 1 week before the experiments. Pain was quantified using three tests, the hind paw withdrawal latency test, the mechanical hyperalgesia test and the mechanical allodynia test. All the experiments were performed during the daytime. Rats were first trained to the experimental chamber in two separate sessions. On the day of the induction of neuropathy, the animals' basal response to all three tests were measured and then streptozocin (50 mg/kg) was administered intravenously. Animals were then followed over time for the development of neuropathic pain. An inhibitor of sEH was administered subcutaneously one week after the onset of pain symptoms. […] Pain response was measured at 60, 120, 240 and 480 minutes after the administration of the sEHI. Compounds were formulated by dissolving them in ethanol and mixing with trans free oleic oil. At least six animals per group were used. The Von Frey test was conducted by stimulating the plantar surface of the rats' hind paw with a calibrated filament connected to a force transducer. As this filament is applied the amount of force exerted on the paw increases and the animal withdraws its paw when the force reaches its threshold. […] In the Randal-Selitto test a similar principle is used. The animals' hind paw is placed between a flat surface and a pointed tip of a force transducer. The pointed tip exerts force on the dorsal face of the paw. […] The two tests are complementary, but depend on the activity of different groups of nociceptors.

StAR mRNA = StAR mRNA expression in spinal cord and brain (qRT-PCR); type: in vivo, rat; conditions: for StAR expression in spinal cord and brain: intrathecal, alone, within 30 minutes
Description: Blood samples for chemical analysis were collected by cardiac puncture under deep isoflurane anesthesia. Plasma was immediately separated by centrifuging at 4000 rpm for 10 minutes in a cold centrifuge. Rats were then decapitated under anesthesia and tissues were removed and flash frozen in liquid nitrogen. For sampling the brain after decapitation, the scalp was first removed providing accessibility to the cranial plates. A midline incision was introduced to detach the cranial plates and brain was carefully exposed by peeling the plates. The brain was removed from the skull using a spatula, immediately placed in liquid nitrogen, and stored at −80° C. The prefrontal area was removed by a coronal cut to the distal one third of the brain from the frozen tissue. The cerebellum was also removed and the brain was hemisected. […] Plasma hormone levels were quantified using RIA. For quantitative RT-PCR, standard procedures were followed.

ICER = ICER expression in spinal cord; type: in vivo, rat; conditions: LPS
Description: Blood samples for chemical analysis were collected by cardiac puncture under deep isoflurane anesthesia. Plasma was immediately separated by centrifuging at 4000 rpm for 10 minutes in a cold centrifuge. Rats were then decapitated under anesthesia and tissues were removed and flash frozen in liquid nitrogen. For sampling the brain after decapitation, the scalp was first removed providing accessibility to the cranial plates. A midline incision was introduced to detach the cranial plates and brain was carefully exposed by peeling the plates. The brain was removed from the skull using a spatula, immediately placed in liquid nitrogen, and stored at −80° C. The prefrontal area was removed by a coronal cut to the distal one third of the brain from the frozen tissue. The cerebellum was also removed and the brain was hemisected. Saggital slices with a thickness of 2 mm and weighing 100-200 mg were cut from both hemispheres lateral to the thalamus and stored to be used for qRT-PCR or chemical analysis. Plasma hormone levels were quantified using RIA. For quantitative RT-PCR, standard procedures were followed.

## CCCCCC1OC1C/C=C\C/C=C\C/C=C\CCCC(=O)OC (centres unmarked) [14,15-EET-me]
TSPO
  activity on TSPO: less potent than the mixture were active and more efficacious

## CCCCC/C=C\C/C=C\CC1OC1C/C=C\CCCC(=O)OC (centres unmarked) [8,9-EET-me]
TSPO
  activity on TSPO: completely lacked activity

## CC(C)(C)NC(=O)[C@H]1CC[C@H]2[C@@H]3CC[C@H]4NC(=O)C=C[C@]4(C)[C@H]3CC[C@]12C [finasteride, reference compound]
LPS induced hyperalgesia
  analgesic activity of AEPU on co-administration: completely abolished

## CC(=O)N1CCC(NC(=O)Nc2ccc(OC(F)(F)F)cc2)CC1 [TPAU]
[1]
  neuropathic pain, von Frey test: reduced and at higher doses eliminated
COX-2 mRNA
  spinal COX-2 mRNA increase: particularly more effective
LPS induced hyperalgesia; 10 mg/kg vs morphine 1 mg/kg
  analgesic potency compared with morphine: potency strikingly comparable to that of a moderate dose of morphine
LPS induced hyperalgesia
  inflammatory pain related behavior: particularly more effective; also recorded: substantially reduced hyperalgesia
LPS induced hyperalgesia; treated animals
  response to stimuli, motor activity: no reduction in response to stimuli or gross signs of loss of motor activity

## O=C(O)CCCCCCCCCCCNC(=O)NC12CC3CC(CC(C3)C1)C2 [AUDA, 12-(3-Adamantan-1-yl-ureido)dodecanoic acid]
[1]; moderate dose
  decrease in withdrawal threshold: completely reversed the decrease in withdrawal threshold
[1]; neuropathic pain model
  pain scores of diabetic rats: dose and time dependent improvement in pain scores
[1]; rat, in vivo
  duration of effect: lost its effect after four hours
[1]
  neuropathic pain, von Frey test: reduced neuropathic pain in a dose and time dependant manner
[2]; 10, 20 and 50 mg/kg
  pain, mechanical hyperalgesia test (FIG. 3): reduced pain in a time and dose dependant
[2]; compound 1010 at equivalent dose
  mechanical allodynia induced by diabetic neuropathy (FIG. 3 legend): reversed

## CCCCC/C=C\C/C=C\C/C=C\CC1OC1CCCC(=O)OC (centres unmarked) [5,6-EET-me]
TSPO
  activity on TSPO: less potent than the mixture were active and more efficacious

## CCC1(c2ccc(N)cc2)CCC(=O)NC1=O (centres unmarked) [aminoglutethimide, reference compound]
LPS induced hyperalgesia
  analgesic activity of AEPU on co-administration: completely abolished

## O=C(NC12CC3CC(CC(C3)C1)C2)N[C@H]1CC[C@H](Oc2ccc(C(=O)O)cc2)CC1 (relative stereo) [t-AUCB, trans-4-[4-(3-adamantan-1-yl-ureido)-cyclohexyloxy]-benzoic acid]
[1]
  neuropathic pain, von Frey test: reduced and at higher doses eliminated

## CCOCCOCCOCCCCCNC(=O)NC12CC3CC(CC(C3)C1)C2 [AEPU, Adamantan-1-yl-3-{5-[2-(2-ethoxyethoxy)ethoxy]pentyl}urea]
StAR mRNA; compound alone
  StAR message in the brain: neither local inflammation nor AEPU alone elicited an increase
StAR mRNA; inflamed animals treated with compound
  StAR message in the brain: two fold increase
StAR mRNA; intrathecal with 8-Br cAMP (100 μg), 30 min
  StAR mRNA in the brain: elicited a parallel increase in the brain
StAR mRNA; intrathecal with 8-Br cAMP (100 μg), 30 min, EETs 5 μg, AEPU 1 μg
  StAR expression in the spinal cord: increased the expression level of StAR in the spinal cord
StAR mRNA
  StAR expression in spinal cord and brain: did not change
ICER
  increase in ICER message: up to 3 fold
LPS induced hyperalgesia; 50 mg/kg dermally, intraplantar LPS
  paw withdrawal latency in response to a mild heat stimulus: transiently increased the paw withdrawal latency
LPS induced hyperalgesia
  inflammatory pain related behavior: had a transient effect on pain however remained analgesic

## Nc1ncnc2c1nc(Br)n2[C@@H]1O[C@@H]2COP(=O)(O)O[C@H]2[C@H]1O [8-Br cAMP, reference compound]
StAR mRNA
  StAR expression in spinal cord and brain: did not change
